Data published in patent publication US20240131028A1, “CHEMOVACCINATION AGAINST PLASMODIUM INFECTION WITH SELECTIVE PLASMEPSIN X INHIBITORS” (Merck Sharp & Dohme LLC, priority 2021, published 2024).

What follows are compounds tested on ring stage parasites (Pf) (assay: Parasite lactate dehydrogenase (LDH) growth assay (Parasite Assay, PfLDH Assay)). Settings: Plasmodium falciparum, 72 h, Table 3; 72 hours growth, LDH readout; read-out: EC50.
Type: cell-based, P. falciparum
Procedure: The parasite stock was maintained at 4% haematocrit in RPMI-Hepes media buffered with sodium bicarbonate and supplemented with 5% heat inactivated human serum and 0.5% albumax. […] On the day of assay set up, a blood smear of the parasite culture was Giemsa stained and counted. The parasitemia was adjusted to 0.7% rings and the haematocrit was diluted to 2% in RPMI-Hepes media buffered with sodium bicarbonate and supplemented with 5% heat inactivated human serum and 0.5% albumax. 30 μl of diluted parasites are then added into 10 μl of media+compound in pre-prepared Greiner TC assay plates. Parasite assay plates were placed in gassed humidified boxes in single layer and allowed to incubate at 37° C. for 72 hours. After 72 hours growth, assay plates were sealed with parafilm and frozen flat, in single file at −80° C. overnight. On the following day, assay plates were allowed to thaw at room temperature for 4 hours to which an LDH assay was performed to measure parasite growth.

Point of comparison: `COc1cncc([C@H]([C@H]2C[C@@H]2C(=O)N[C@H]2CC(C)(C)Oc3ccccc32)N2C(=N)NC(C)(C)CC2=O)c1` [Example 40], EC50 3.1 nM. Against it:
- CCC1(CC)CC(=O)N(CC2C(C(=O)N[C@H]3C[C@@H](C(F)(F)F)Oc4ccccc43)C2(C)C)C(=N)N1 (some centres unmarked) [Example 31A] — 69-fold higher, 215 nM
- CCC1(CC)CC(=O)N(C[C@H]2C[C@@H]2C(=O)N[C@H]2c3ccccc3C[C@@H]2O)C(=N)N1 [Example 6A] — 61-fold higher, 188 nM
- CCC1(CC)CC(=O)N([C@H](c2cccnc2)[C@H]2C[C@@H]2C(=O)N[C@H]2CCOc3ccccc32)C(=N)N1 [Example 9] — 2.2-fold higher, 6.9 nM
- CC1(C)CC(=O)N([C@H](c2cccc(C#N)c2)[C@H]2C[C@@H]2C(=O)N[C@H]2CC(C)(C)Oc3ccccc32)C(=N)N1 [Example 50] — within 1.5-fold, 3 nM
- COCC[C@H]([C@H]1C[C@@H]1C(=O)N[C@@H]1CC(C)(C)Oc2c(F)cc(F)cc21)N1C(=N)NC(C)(C)CC1=O [Example 113A] — 6.1-fold higher, 19 nM
- CCC1(CC)CC(=O)N(C[C@H]2C(C)[C@@H]2C(=O)N[C@@H]2c3ccccc3C[C@H]2O)C(=N)N1 (some centres unmarked) [Example 33] — 25-fold higher, 76 nM
- COCC[C@H]([C@H]1C[C@@H]1C(=O)N[C@H]1CC(C)(C)Oc2ccc(F)cc21)N1C(=N)NC(C)(C)CC1=O [Example 72B] — within 1.5-fold, 2.5 nM
- CCC1(CC)CC(=O)N([C@H](CCOC)[C@H]2C[C@@H]2C(=O)N[C@H]2CC(C)(C)Oc3ccccc32)C(=N)N1 [Example 1A] — 3.1-fold lower, 1 nM
- CCC1(CC)CC(=O)N([C@H](CCOC)[C@H]2C[C@@H]2C(=O)N[C@H]2c3ccccc3OCC2(C)C)C(=N)N1 [Example 19B] — within 1.5-fold, 4.2 nM
- COCC[C@H]([C@H]1C[C@@H]1C(=O)N[C@@H]1CC(C)(C)Oc2cccc(OC(F)(F)F)c21)N1C(=N)NC(C)(C)CC1=O [Example 107B] — 3.5-fold higher, 11 nM
- COc1cccc2c1C(NC(=O)[C@H]1C[C@@H]1[C@@H](c1cccnc1)N1C(=N)NC(C)(C)CC1=O)CC(C)(C)O2 (some centres unmarked) [Example 96A] — within 1.5-fold, 2.7 nM
- CC1[C@H]([C@@H](c2cccnc2)N2C(=N)NC(C)(C)CC2=O)[C@H]1C(=O)N[C@H]1CC(C)(C)Oc2ccccc21 (some centres unmarked) [Example 57A] — within 1.5-fold, 3.2 nM
- CC1(C)CC(=O)N([C@H](c2cccnc2)[C@H]2C[C@@H]2C(=O)N[C@@H]2c3ccccc3OC(C)(C)[C@H]2O)C(=N)N1 [Example 27] — 25-fold higher, 78 nM
- CCC1(CC)CC(NC(=O)[C@H]2C[C@@H]2[C@@H](CCOC)N2C(=N)NC(C)(C)CC2=O)c2ccccc2O1 (some centres unmarked) [Example 92A] — 2.5-fold higher, 7.6 nM
- CCC1(CC)CC(=O)N([C@@H](c2cccnc2)[C@@H]2[C@@H](C(=O)N[C@H]3CC(C)(C)Oc4ccccc43)C2(C)C)C(=N)N1 [Example 48B] — 2.4-fold higher, 7.4 nM
- CC1(C)CC(=O)N([C@H](c2ccc(C#N)cc2)[C@H]2C[C@@H]2C(=O)N[C@H]2C[C@H](C(F)(F)F)Oc3ccccc32)C(=N)N1 [Example 47B] — 3.4-fold lower, 0.9 nM
- CC1(C)CC(=O)N([C@H](c2ccc(C#N)cc2)[C@H]2C[C@@H]2C(=O)N[C@@H]2c3ccccc3OC(C)(C)[C@H]2O)C(=N)N1 [Example 46] — within 1.5-fold, 2.5 nM
- CC1(C)CC(=O)N([C@@H](c2cccnc2)[C@H]2C[C@@H]2C(=O)N[C@H]2CC(C)(C)Oc3cc(Cl)ccc32)C(=N)N1 [Example 91A] — 3.9-fold lower, 0.8 nM
- COCC[C@H]([C@H]1C[C@@H]1C(=O)N[C@H]1CCOc2ccccc21)N1C(=N)N[C@](C)(C(C)C)CC1=O [Example 22] — 14-fold higher, 44 nM
- CC[C@]1(C)CC(=O)N([C@H](CCOC)[C@H]2C[C@@H]2C(=O)N[C@H]2C[C@H](C(F)(F)F)Oc3ccccc32)C(=N)N1 [Example 62B] — 3.9-fold lower, 0.8 nM
- CC1(C)CC(=O)N(C[C@H]2C[C@@H]2C(=O)NC2CC(C)(C)Oc3ccc(OC(F)(F)F)cc32)C(=N)N1 (some centres unmarked) [Example 125A] — 75-fold higher, 231 nM
- COCC[C@@H]([C@H]1C[C@@H]1C(=O)N[C@H]1C[C@@H](C(F)(F)F)Oc2ccccc21)N1C(=N)NC(C)(C)CC1=O [Example 24C] — 39-fold higher, 120 nM
- CCC1(C)CC(NC(=O)[C@H]2C[C@@H]2[C@@H](CCOC)N2C(=N)NC(C)(C)CC2=O)c2ccccc2O1 (some centres unmarked) [Example 75A] — 2.6-fold higher, 8.2 nM
- Cc1ccc2c(c1)OC(C)(C)C[C@@H]2NC(=O)[C@H]1C[C@@H]1CN1C(=N)NC(C)(C)CC1=O [Example 84] — 93-fold higher, 289 nM
- CC[C@@]1(C)CC(=O)N([C@H](c2cncc(F)c2)[C@H]2C[C@@H]2C(=O)N[C@@H]2c3ccccc3OCC2(C)C)C(=N)N1 [Example 102A] — 3.9-fold lower, 0.8 nM

Same assay, conditions: Table 3; 72 hours growth, LDH readout; read-out: EC50

Point of comparison: `COc1ccc2c(c1)OC(C)(C)C[C@@H]2NC(=O)[C@H]1C[C@@H]1[C@H](c1cccnc1)N1C(=N)NC(C)(C)CC1=O` [Example 65A], EC50 2.8 nM. Against it:
- CC(C)C1(C)CC(NC(=O)[C@H]2C[C@@H]2[C@@H](c2cccnc2)N2C(=N)NC(C)(C)CC2=O)c2ccccc2O1 (single isomer, unassigned) [Example 81A] — within 1.5-fold, 2.7 nM
- CC[C@]1(C)CC(=O)N([C@H](CCOC)[C@H]2C[C@@H]2C(=O)NC2CC(C)(C)Oc3ccc(C(F)(F)F)cc32)C(=N)N1 (single isomer, unassigned) [Example 127B] — within 1.5-fold, 2.6 nM
- CCC1(C)CC(NC(=O)[C@H]2C[C@@H]2[C@@H](CCOC)N2C(=N)NC(C)(C)CC2=O)c2ccccc2O1 (single isomer, unassigned) [Example 75D] — 2.5-fold higher, 7 nM
- CC[C@]1(C)CC(=O)N(C(c2cncc(F)c2)[C@H]2C[C@@H]2C(=O)NC2c3ccccc3OC(C(F)(F)F)C2O)C(=N)N1 (single isomer, unassigned) [Example 104A] — within 1.5-fold, 4 nM
- CCC1(C)CC(NC(=O)[C@H]2C[C@@H]2[C@@H](c2cccnc2)N2C(=N)NC(C)(C)CC2=O)c2ccccc2O1 (single isomer, unassigned) [Example 105D] — 3.1-fold lower, 0.9 nM
- CC1[C@H](C(c2cccnc2)N2C(=N)NC(C)(C)CC2=O)[C@H]1C(=O)N[C@H]1C[C@H](C(F)(F)F)Oc2ccccc21 (single isomer, unassigned) [Example 54A] — 2.8-fold lower, 1 nM
- CCC1C[C@H](NC(=O)[C@H]2C[C@@H]2CN2C(=N)NC(C)(C)CC2=O)c2ccccc2O1 (single isomer, unassigned) [Example 133B] — 36-fold higher, 100 nM
- CCC1(CC)CC(NC(=O)[C@H]2C[C@@H]2[C@@H](CCOC)N2C(=N)NC(C)(C)CC2=O)c2ccccc2O1 (some centres unmarked) [Example 92B] — 2.6-fold higher, 7.2 nM
- CCC1(C)CC(NC(=O)[C@H]2C[C@@H]2[C@@H](c2cccnc2)N2C(=N)NC(C)(C)CC2=O)c2ccccc2O1 (single isomer, unassigned) [Example 105C] — 3.5-fold lower, 0.8 nM
- CC[C@@]1(C)CC(=O)N(C(c2cncc(F)c2)[C@H]2C[C@@H]2C(=O)N[C@H]2CC(C)(C)Oc3ccc(F)cc32)C(=N)N1 (some centres unmarked) [Example 69E] — 110-fold higher, 300 nM
- CC[C@]1(C)CC(=O)N(C(c2cncc(F)c2)[C@H]2C[C@@H]2C(=O)N[C@@H]2c3ccccc3OC(C)(C)C2(C)O)C(=N)N1 (single isomer, unassigned) [Example 103A] — 10-fold higher, 29 nM
- CC1(C)CC(=O)N([C@H](c2cccnc2)[C@H]2C[C@@H]2C(=O)NC2CC(C)(C)Oc3c(F)cccc32)C(=N)N1 (some centres unmarked) [Example 93B] — within 1.5-fold, 2.4 nM
- CC[C@@]1(C)CC(=O)N(C(c2cncc(F)c2)[C@H]2C[C@@H]2C(=O)N[C@H]2CC(C)(C)Oc3ccc(F)cc32)C(=N)N1 (some centres unmarked) [Example 69C] — 3.5-fold lower, 0.8 nM
- COc1cccc2c1C(NC(=O)[C@H]1C[C@@H]1[C@@H](c1cccnc1)N1C(=N)NC(C)(C)CC1=O)CC(C)(C)O2 (some centres unmarked) [Example 96B] — within 1.5-fold, 3.3 nM
- CCC1(C)CC(NC(=O)[C@H]2C[C@@H]2[C@@H](c2cccnc2)N2C(=N)NC(C)(C)CC2=O)c2ccccc2O1 (single isomer, unassigned) [Example 105B] — 1.6-fold lower, 1.8 nM
- CCC1(CC)CC(=O)N(C[C@H]2C[C@@H]2C(=O)N[C@H]2c3ccccc3C[C@@H]2O)C(=N)N1 [Example 6B] — 96-fold higher, 269 nM
- CC[C@@]1(C)CC(=O)N(C(c2cncc(F)c2)[C@H]2C[C@@H]2C(=O)N[C@H]2CC(C)(C)Oc3ccc(F)cc32)C(=N)N1 (some centres unmarked) [Example 69D] — 9.3-fold lower, 0.3 nM
- CC[C@@]1(C)CC(=O)N(C(c2cncc(F)c2)[C@H]2C[C@@H]2C(=O)N[C@H]2CC(C)(C)Oc3ccc(F)cc32)C(=N)N1 (some centres unmarked) [Example 69B] — within 1.5-fold, 1.9 nM
- COCC[C@H]([C@H]1C[C@@H]1C(=O)NC1CC(C)(COC)Oc2ccccc21)N1C(=N)NC(C)(C)CC1=O (single isomer, unassigned) [Example 82C] — 19-fold higher, 53 nM
- CC1(C)CC(=O)N([C@H](c2cccnc2)[C@H]2C[C@@H]2C(=O)NC2CC(C)(C)Oc3ccc(C(F)(F)F)cc32)C(=N)N1 (single isomer, unassigned) [Example 109A] — within 1.5-fold, 2.3 nM
- CCC1C[C@H](NC(=O)[C@H]2C[C@@H]2CN2C(=N)NC(C)(C)CC2=O)c2ccccc2O1 (single isomer, unassigned) [Example 133A] — 75-fold higher, 210 nM

Same assay, conditions: Table 4; 72 hours growth, LDH readout; read-out: EC50 (Table 4)

Point of comparison: `CCC1(CC)CC(=O)N(C(CC(C)OC)[C@H]2C[C@@H]2C(=O)N[C@H]2CC(C)(C)Oc3ccccc32)C(=N)N1` (single isomer, unassigned) [Example 142A], EC50 1.9 nM. Against it:
- CCC1(CC)CC(=O)N(C(CC(C)OC)[C@H]2C[C@@H]2C(=O)N[C@@H]2CC(C)(C)Oc3ccccc32)C(=N)N1 (single isomer, unassigned) [Example 143A] — 2.4-fold higher, 4.6 nM
